Measurements published in publication PMC12040169 (PLOS Biology, 2025).

Key:
in vitro [1] = conditions: human, hela cells, % viability
in vitro [2] = experiment: in vitro; parameters: Viability of infected HeLa host cells, resazurin conversion, bulk resorufin fluorescence relative to DMSO; conditions: human, hela cells; bulk resorufin, mean of 2
[3] = test system: T1, C. trachomatis L2/434/Bu expressing GFP (CTL2-GFP); experiment: microbe, parasite or virus in culture; parameters: C. trachomatis total inclusion area by high-content imaging, normalised to DMSO; conditions: Chlamydia trachomatis, HeLa, 28.5 h; total inclusion area; read-out: % of control remaining
T1 construct: L2/434/Bu GFP intracellular growth in HeLa cells
Summary of the method: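 First, bulk GFP and resorufin signals were measured in compound-treated infected cultures. Cells were next fixed and stained with Hoechst. Finally, high-content imaging quantified chlamydial inclusions (area, number) and host nuclei, and MICs were calculated.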

[4] = test system: T2, CTL2-GFP (C. trachomatis L2/434/Bu, GFP-expressing); experiment: microbe, parasite or virus in culture; parameters: Intracellular C. trachomatis growth in HeLa cells, bulk GFP fluorescence relative to DMSO; conditions: Chlamydia trachomatis, HeLa, 28.5 h; bulk GFP, mean of 2; read-out: % of control remaining
T2 construct: L2/434/Bu, GFP-expressing
Description: MICs were calculated as described above.

Row | SMILES | viability at 28.5 h, 10 µM (in vitro [1]) [%] | viability at 28.5 h, 1 µM (in vitro [2]) [%] | viability at 28.5 h, 5 µM (in vitro [2]) [%] | viability at 28.5 h, 10 µM (in vitro [2]) [%] | activity at 1 µM [3] [%] | activity at 5 µM [3] [%] | activity at 10 µM [3] [%] | activity at 1 µM [4] [%] | activity at 5 µM [4] [%] | activity at 10 µM [4] [%]
1 | Cc1ccc(NC(=O)N(Cc2ccc(-c3ccccc3)cc2)CC(C)(C)CN)c(C)c1 [CBK002428C] | 94.9 | 90.2 | 88.8 | 86.4 | 115 | 68.5 | 10.7 | 126 | 87.3 | 46.1
2 | CN1CCOC(CNc2nc(-c3ccncc3)nc3c2CCC3)C1 (centres unmarked) [CBK304890] | 87 | 90.5 | 92.8 | 99.5 | 46.1 | 45.8 | 25.1 | 141 | 112 | 126
3 | CCN1CCN(c2cc3c(cc2F)c(=O)c(C(=O)NCCOC)cn3C2CC2)CC1 [CBK300529] | 94.2 | 88.9 | 93 | 88.7 | 24.3 | 3.14 | 0.623 | 36.3 | 5.5 | 6.24
4 | OCCn1ncc2c(NCc3cccc(Cn4ccnc4)c3)ncnc21 [CBK304184] | 90.3 | 96.1 | 92 | 92.4 | 81 | 101 | 58.7 | 144 | 158 | 128
5 | C/C(=N\Nc1nnc2c(n1)[nH]c1ccccc12)c1ccccn1 [CBK262054] | 94.5 | 87.3 | 69.7 | 70.2 | 18.7 | 2.45 | 1.6 | 18 | 12.2 | 10.5
6 | Nc1ccc(C(=O)Nc2ccc(-c3nc4ccc(NC(=O)c5ccc(N)cc5)cc4[nH]3)cc2)cc1 [CBK261147] | 109 | 88.3 | 93.2 | 103 | 101 | 76.7 | 91.9 | 149 | 133 | 160
7 | COc1ccc2[nH]cc(CCNC(=O)c3ccc([N+](=O)[O-])c(C)c3)c2c1 [CBK269426] | 100 | 85.4 | 90.5 | 84.5 | 140 | 55.8 | 21.5 | 149 | 100 | 62.1
8 | CC(Nc1cc(N2CCN(CCO)CC2)ccc1[N+](=O)[O-])c1ccc(Br)cc1 (centres unmarked) [CBK041273] | 103 | 91.4 | 94.5 | 96.3 | 130 | 81.9 | 47.4 | 139 | 130 | 93.8
9 | NC(=O)c1[nH]nc(C2OC(CO)C(O)C2O)c1O (centres unmarked) [CBK201236] | 95.1 | 92.8 | 92.1 | 93.8 | 23.4 | 16 | 13.6 | 15.5 | 10.1 | 9.69
10 | Cc1cc(NS(=O)(=O)c2ccc(NC(=S)NC(=O)C(C)(C)C)cc2)no1 [CBK268877] | 95.7 | 93.4 | 96.5 | 99.1 | 74.7 | 64 | 35.4 | 123 | 78.8 | 33.7
11 | O=C(N/N=C/c1ccc(Sc2cccc3cccnc23)o1)c1cccc(F)c1 [CBK263263] | 87.9 | 101 | 99.9 | 108 | 21 | 4.03 | 0.368 | 12 | 3.14 | 0
12 | O=C(O)c1cn(C2CC2)c2cc(N3CCN(C(=O)Cc4ccsc4)CC3)c(F)cc2c1=O [CBK297142] | 88.9 | 90.6 | 93 | 90.7 | 114 | 17.9 | 12.9 | 137 | 28.4 | 17.7
13 | Cc1ccc(NC(=O)n2ccc3c(N4CCNCC4)cccc32)cc1[N+](=O)[O-] [CBK003747C] | 81.4 | 89.8 | 85.5 | 76.7 | 75.6 | 59.3 | 30.3 | 105 | 78.4 | 44.4
14 | O=C(c1ccc(-c2ccc(F)cc2)o1)N1C[C@H]2CC[C@](O)(c3ccc(F)cc3)[C@H]2C1 [CBK286415] | 94.1 | 91.9 | 86.5 | 91.6 | 0.419 | 0.168 | 0.106 | 6.79 | 7.93 | 15.1
15 | Cc1cc(NS(=O)(=O)c2ccc(Nc3nc(-c4ccccn4)cs3)cc2)no1 [CBK263302B] | 93.1 | 90.8 | 93.6 | 99.8 | 76.5 | 93.3 | 56.4 | 105 | 88.6 | 49.5
16 | O=C(NCCNCCNC(=O)C1(c2ccccc2)CCCC1)C1(c2ccccc2)CCCC1 [CBK017670] | 110 | 91.6 | 93.5 | 89.5 | 107 | 54.1 | 8.64 | 123 | 49.1 | 13.5
17 | CCc1nnc(NS(=O)(=O)c2ccc(N/C=C3\C(=O)N(c4ccc(C)cc4)N=C3C)cc2)s1 [CBK262395] | 100 | 96 | 101 | 91.7 | 116 | 36.9 | 35 | 87 | 17.9 | 18.6
18 | Cc1cccc(Nc2nc(C)cc3n[nH]c(=O)n23)c1 [CBK288477] | 89.2 | 102 | 104 | 81.5 | 74.4 | 33.7 | 17.7 | 134 | 57.5 | 29.6
19 | COc1cc(OC)c(CCNC2CCCc3c2cnn3C)c(OC)c1 (centres unmarked) [CBK304482] | 111 | 97.4 | 91.3 | 93.8 | 102 | 131 | 56.7 | 147 | 156 | 135
20 | Nc1cccc2c(OCCO)cccc12 [CBK001976C] | 91.8 | 92.9 | 89 | 85.7 | 82.7 | 72.9 | 30.7 | 92.4 | 76.5 | 45.6
21 | CCc1nnc(NS(=O)(=O)c2ccc(NC(=O)COc3ccc(Cl)cc3Cl)cc2)s1 [CBK200050] | 108 | 104 | 96.7 | 98.4 | 99.2 | 67 | 37.8 | 112 | 48.5 | 22.1
22 | Fc1cc(Br)c(CNCc2ncc[nH]2)c(N2CCCCC2)c1F [CBK304243] | 99.2 | 96.3 | 88.7 | 89.7 | 105 | 30.4 | 7.47 | 128 | 39.3 | 16.8
23 | Cc1cc2cc(C(=O)N3CCC(c4c(C(=O)NC(C)C)sc5ccccc45)C3)ccc2o1 (centres unmarked) [CBK285873] | 87.1 | 90 | 97.6 | 96.2 | 150 | 85.1 | 51.5 | 148 | 48.7 | 31.6
